The source of these data is the supplement of paper PMC5412046.

Test [1] relates to SB.mhdgc-1. Kind of test: viability at highest tested concentration (MAXR) relative to DMSO; higher = less cytotoxic. As to conditions: SB.mhdgc-1 (hereditary c.1380delA CDH1 gastric cancer). In a few lines:
(§1)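 After 48 h of compound exposure, viability of hereditary or sporadic patient-derived gastric cancer cells was measured by CellTiter-Glo luminescence. Compounds were added in DMSO at 11 threefold-diluted concentrations to 500 cells per 1536 well. Results are viability normalised to DMSO, either at the highest concentration or as trapezoidal area under the curve.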

Test [2] relates to SB.msgc-1. The description is as above. As to conditions: SB.msgc-1 (sporadic gastric cancer). In outline:
as §1

Test [3] deals with SB.mhdgc-1. Description: area under the dose-response curve of % viability (trapezoidal, 11 doses) (% viability x log10 concentration); higher = less cytotoxic. As to conditions: SB.mhdgc-1 (hereditary c.1380delA CDH1 gastric cancer). In a few lines:
as §1

Test [4] concerns SB.msgc-1. The description is as above. As to conditions: SB.msgc-1 (sporadic gastric cancer). In a few lines: as §1

On to `COc1ccc(-n2nc(C(N)=O)c3c2C(=O)N(c2ccc(N4CCCCC4=O)cc2)CC3)cc1` [Apixaban] (top concentration 46.0829 µM), for which the viability with SB.mhdgc-1 [1] and in the test on SB.msgc-1 [2] was 122% each time. Also, the “area under the dose-response curve” value in the test on SB.mhdgc-1 [3] was found to be 502; in the test with SB.msgc-1 [4] it was 533.
With `CC(=O)N1CCN(c2ccc(OCc3nn(C)c(C)c3-c3cccc4c(CCCOc5cc(C)c(Cl)c(C)c5)c(C(=O)O)n(Cc5cccnc5)c34)cc2)CC1` (top concentration 46.0829 µM), the viability in the test on SB.mhdgc-1 [1] was found to be 48.8%; in the test on SB.msgc-1 [2] it was 26.9%. The entries for the “area under the dose-response curve” value in the test with SB.mhdgc-1 [3] and with SB.msgc-1 [4] were 425 and 498, respectively.
For `CCOC(=O)\C1=C\[C@]2(CC)CCCN3CCC4=C([C@H]23)[N]1C5=C4C=CC=C5` [Vinpocetine] (top concentration 46.0829 µM), in that order: 3.48%, 4.04%, 490 and 469.
For `Nc1nc(N)c(N=O)c(OCC2CCCCC2)n1` [NU-6027] (top concentration 46.0829 µM), in that order: 53.7%, 69.3%, 432 and 505.
For `CC/1=C(/N2[C@H](SC1)[C@H](NC(=O)C(N)C3=CC=CC=C3)C2=O)C(O)=O` (stereo partly drawn) [Cephalexin] (top concentration 46.0829 µM), in that order: 65%, 117%, 543 and 528.
Take `Cn1cc(-c2ccncc2)c(-c2ccc(OCc3ccc4ccccc4n3)cc2)n1` [MP-10] (top concentration 46.0829 µM): the values for the viability in the test with SB.mhdgc-1 [1] and in the test on SB.msgc-1 [2] were 84.7% and 55.8%, respectively. Also, the “area under the dose-response curve” value in the test with SB.mhdgc-1 [3] was 583; in the test on SB.msgc-1 [4], 495.
With `O=C1NC(=O)/C(=C/c2cccc(C(F)(F)F)c2)S1` [SMI-4a] (top concentration 46.0829 µM), the viability in the test on SB.mhdgc-1 [1] came to 69.4%; with SB.msgc-1 [2] it was 50.3%. The “area under the dose-response curve” value in the test on SB.mhdgc-1 [3] stood at 551; in the test with SB.msgc-1 [4], 509.
Taken in the same sequence, the figures for `CN[C@@H](C)C(=O)N[C@H]1CN(C(=O)CC(C)C)CC[C@H]2CC[C@@H](C(=O)NC(c3ccccc3)c3ccccc3)N2C1=O` [AT-406] (top concentration 46.0829 µM) were 14.5%, 18.7%, 385 and 452.
For `CCOC(=O)\C1=C\[C@@H](OC(CC)CC)[C@H](NC(C)=O)[C@@H](N)C1` [Oseltamivir phosphate] (top concentration 46.0829 µM), in that order: 144%, 92.5%, 529 and 531.
Turning to `Cc1cc(Nc2nc(N[C@@H](C)c3ccc(F)cc3)c(C#N)cc2F)n[nH]1` [AZ-960] (top concentration 46.0829 µM), the viability in the test with SB.mhdgc-1 [1] amounted to 8.67%; in the test with SB.msgc-1 [2], 2.72%. Also, the “area under the dose-response curve” value with SB.mhdgc-1 [3] is 491; with SB.msgc-1 [4], 522.
For `COc1c(C)c2c(c(O)c1C/C=C(\C)CCC(=O)O)C(=O)OC2` [Mycophenolic acid] (top concentration 46.0829 µM), in that order: 66%, 73.8%, 502 and 519.
Taken in the same sequence, the figures for `CCN(CC)CCCC(C)Nc1ccnc2cc(Cl)ccc12` (stereo not drawn) [Chloroquine (CQ)] (top concentration 46.0829 µM) were 23.6%, 47.3%, 507 and 456.
On to `NC(=O)Cc1cccc(C(=O)c2ccccc2)c1N` [Nepafenac] (top concentration 46.0829 µM), for which the viability is 116% in the test with SB.mhdgc-1 [1] and 85.9% in the test with SB.msgc-1 [2]. For the same compound, the results for the “area under the dose-response curve” value with SB.mhdgc-1 [3] and in the test on SB.msgc-1 [4] were 566 and 478, respectively.
Taken in the same sequence, the figures for `CCOC(=O)N1CCN(/[N+]([O-])=N/Oc2ccc([N+](=O)[O-])cc2C#N)CC1` [JS-59-4] (top concentration 46.0829 µM) were 4.29%, 50.7%, 418 and 495.
Taken in the same sequence, the figures for `CC(C)(C)NC(=O)[C@H]1CC[C@H]2[C@@H]3CC[C@H]4NC(=O)\C=C/[C@]4(C)[C@H]3CC[C@]12C` [Finasteride] (top concentration 46.0829 µM) were 1.13%, 2.98%, 357 and 362.
For `O=C(c1ccc(F)c(F)c1Nc1ccc(I)cc1F)N1CC(O)([C@H]2CCCCN2)C1` [Cobimetinib] (top concentration 46.0829 µM), the viability with SB.mhdgc-1 [1] was determined as 3.4%; in the test with SB.msgc-1 [2] it was 22.7%. Also, the “area under the dose-response curve” value in the test with SB.mhdgc-1 [3] was 379; in the test with SB.msgc-1 [4] it was 470.
Taken in the same sequence, the figures for `CNc1nc(-c2ccc3c(N)n[nH]c3c2)cc(N2C[C@@H](C(=O)NC3CCCCC3)CC[C@H]2C)n1` (top concentration 46.0829 µM) were 8.83%, 14.5%, 376 and 423.
Take `Cc1c(O)cccc1C(=O)N[C@@H](CSc1ccccc1)[C@H](O)CN1C[C@H]2CCCC[C@H]2C[C@H]1C(=O)NC(C)(C)C` [Viracept] (top concentration 46.0829 µM): the viability is 3.25% with SB.mhdgc-1 [1] and 20% in the test on SB.msgc-1 [2]. For the same compound, the “area under the dose-response curve” value with SB.mhdgc-1 [3] turned out to be 431; in the test on SB.msgc-1 [4], 486.
Regarding `c1ccc2c(Cc3c[nH]c4ccccc34)c[nH]c2c1` [Diindolylmethane] (top concentration 46.0829 µM), the figures for the viability in the test with SB.mhdgc-1 [1] and in the test on SB.msgc-1 [2] were 2.05% and 0.925%, respectively. The “area under the dose-response curve” value was 351 with SB.mhdgc-1 [3] and 241 in the test on SB.msgc-1 [4].
For `O=C(c1ccc(F)cc1)C1CCN(CCn2c(=O)[nH]c3ccccc3c2=O)CC1` [Ketanserin] (top concentration 46.0829 µM), in that order: 109%, 115%, 536 and 523.
As to `COC[C@H](NC(=O)c1cnc(C)s1)C(=O)N[C@@H](COC)C(=O)N[C@@H](Cc1ccccc1)C(=O)[C@@]1(C)CO1` [Oprozomib] (top concentration 46.0829 µM), the viability was 2.05% in the test with SB.mhdgc-1 [1] and 1.92% in the test on SB.msgc-1 [2]. Besides, the “area under the dose-response curve” value with SB.mhdgc-1 [3] came out at 242; with SB.msgc-1 [4], 239.
Taken in the same sequence, the figures for `NC/1=N/C(=O)N(/C=C1)[C@H]2CC[C@@H](CO)O2` [Zalcitabine] (top concentration 46.0829 µM) were 61.1%, 49.5%, 428 and 391.

For orientation: viability means a read-out of living cells in per cent, often relative to untreated cells.
